Laboratory results published in patent US20260209152A1, “Substituted Hydroxystilbene Compounds and Derivatives, Synthesis and Uses Thereof” (Kynan Duke IP, LLC, priority 2019, published 2026).
“Also recorded” adds a separate entry of the source. Where two headings read alike, the source gives them in different places.

How the values were obtained:
Bladder J82 = test: CellTiter Glo cell viability assay; format: cell-based, human; conditions: for IC50: Homo sapiens, 72 h, 3 Days of treatment, 18 2-fold dilutions 5-0.00003 μM
In short: (§1)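 Cells seeded at 1.7*10^3/well in quadruplicate; compounds at 18 two-fold dilutions from 5 μM (0.000038146-5 μM), or at 1, 2, 5, 10 and 20 μM. CellTiter Glo luminescence read on days 1, 3 and 5 after treatment. IC50 by nonlinear regression of luminescence versus log dose.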

Bladder SW780 = test: CellTiter Glo cell viability assay; format: cell-based, human; conditions: for IC50: Homo sapiens, SW780, 72 h, 3 Days of treatment, 18 2-fold dilutions 5-0.00003 μM
In short: as §1

Bladder UMUC-14 = test: CellTiter Glo cell viability assay; format: cell-based, human; conditions: for IC50: Homo sapiens, UMUC14, 72 h, 3 Days of treatment, 18 2-fold dilutions 5-0.00003 μM
In short: as §1

Breast MCF7 = test: CellTiter Glo cell viability assay; format: cell-based, human; conditions: for IC50: Homo sapiens, MCF7, 72 h, 3 Days of treatment, 18 2-fold dilutions 5-0.00003 μM
In short: as §1

Fibrosarcomas SW 684 = test: CellTiter Glo cell viability assay; format: cell-based, human; conditions: for IC50: Homo sapiens, SW684, 72 h, 3 Days of treatment, 18 2-fold dilutions 5-0.00003 μM
In short: as §1

Kidney ACHN = test: CellTiter Glo cell viability assay; format: cell-based, human; conditions: for IC50: Homo sapiens, ACHN
In short: as §1

Kidney HTB-45 = test: CellTiter Glo cell viability assay; format: cell-based, human; conditions: for IC50: Homo sapiens, 72 h, 3 Days of treatment, 18 2-fold dilutions 5-0.00003 μM
In short: as §1

Kidney SK-NEP-1 = test: CellTiter Glo cell viability assay; format: cell-based, human; conditions: for IC50: Homo sapiens, SK-NEP-1, 72 h, 3 Days of treatment, 18 2-fold dilutions 5-0.00003 μM
In short: as §1

Leiomyosarcoma SK-UT-1B = test: CellTiter Glo cell viability assay; format: cell-based, human; conditions: for IC50: Homo sapiens, Skut1B, 72 h, 3 Days of treatment, 18 2-fold dilutions 5-0.00003 μM
In short: as §1

Liposarcoma 93T449 = test: CellTiter Glo cell viability assay; format: cell-based, human; conditions: for IC50: Homo sapiens, 72 h, 3 Days of treatment, 18 2-fold dilutions 5-0.00003 μM
In short: as §1

Liver JHH-7 = test: CellTiter Glo cell viability assay; format: cell-based, human; conditions: for IC50: Homo sapiens, JHH7, 72 h, 3 Days of treatment, 18 2-fold dilutions 5-0.00003 μM
In short: as §1

Lung NCI-H1299 = test: CellTiter Glo cell viability assay; format: cell-based, human; conditions: for IC50: Homo sapiens, NCI-H1299, 72 h, 18 2-fold dilutions 5-0.00003 μM
In short: as §1

Lung NCI-H661 = test: CellTiter Glo cell viability assay; format: cell-based, human; conditions: for IC50: Homo sapiens, NCI-H661, 72 h, 3 Days of treatment, 18 2-fold dilutions 5-0.00003 μM
In short: as §1

Pancreatic CAPAN-1 = test: CellTiter Glo cell viability assay; format: cell-based, human; conditions: for IC50: Homo sapiens, CAPAN-1, 72 h, 18 2-fold dilutions 5-0.00003 μM
In short: as §1

Pancreatic CAPAN-2 = test: CellTiter Glo cell viability assay; format: cell-based, human; conditions: for IC50: Homo sapiens, Capan-2, 72 h, 3 Days of treatment, 18 2-fold dilutions 5-0.00003 μM
In short: as §1

Rhabomyosarcoma CCL 166 = test: CellTiter Glo cell viability assay; format: cell-based, human; conditions: for IC50: Homo sapiens, 72 h, 3 Days of treatment, 18 2-fold dilutions 5-0.00003 μM
In short: as §1

Tongue SCC-9 = test: CellTiter Glo cell viability assay; format: cell-based, human; conditions: for IC50: Homo sapiens, SCC-9, 72 h, 3 Days of treatment, 18 2-fold dilutions 5-0.00003 μM
In short: as §1

BalbC mice = test: Maximum Tolerable Dose - LD/50 single dose oral administration; format: in vivo; conditions: single oral dose 2000 mg/kg in SEDDS vehicle, 5 BalbC mice, observation 5 days
Procedure: To ascertain initial information regarding the toxicity and tolerability of compound 27.
• A single administration of orally formulated maximum dose, 2000 mg/kg was given to 5 BalbC mice. Observation was carried out for 5 days.
• Compound 27 was weighed out and diluted into the same SEDDS vehicle used for S1. The SEDDS vehicle is composed of the following components: • Labrasol (30%) • PEG-400 (20%) • Kolliphore RH-40 (30%) • Labrafil (20%) • The concentration of 27 in SEDDS was 200 mg/mL which would translate to a 2000 mg/kg oral dose for a 20 g mouse administered 200 ul. Oral administration was administered to 5 mice and the animals were carefully observed for signs of toxicity in the first hour then sporadically over 5 days.

[1] = 72 h, 3 Days of treatment, 18 2-fold dilutions 5-0.00003 μM, read-out: Average IC50
[2] = 72 h, Table 4: 3 Days of treatment, 18 2-fold dilutions 5-0.00003 μM, Average (1, 8) or single Exp A-D, read-out: IC50
[3] = 120 h, Day 5 upon drug treatment, 10 dosages 0.0001-20 μM (Compound 8: 18 dosages 0.000038146 to 5 μM), read-out: IC50
[4] = 3 Days of treatment, read-out: Average IC50
[5] = Table 4: 3 Days of treatment, Average (1, 8) or single Exp A-D, read-out: IC50
[6] = IC50 of 1 [KYN-001] vs 8 [KYN-119], 3 Days

Row | IC50 (Bladder SW780) | IC50 (Breast MCF7) | IC50 (Kidney ACHN; [1]) | IC50 (Kidney ACHN; [2]) | IC50 (Kidney ACHN; [3]) | IC50 (Kidney SK-NEP-1) | IC50 (Leiomyosarcoma SK-UT-1B) | IC50 (Liposarcoma 93T449) | IC50 (Lung NCI-H1299; [4]) | IC50 (Lung NCI-H1299; [5]) | IC50 (Lung NCI-H661) | IC50 (Rhabomyosarcoma CCL 166) | Compound | IC50 (Bladder J82) | IC50 (Bladder UMUC-14) | IC50 (Fibrosarcomas SW 684) | IC50 (Kidney HTB-45) | IC50 (Liver JHH-7) | IC50 (Pancreatic CAPAN-1; [4]) | IC50 (Pancreatic CAPAN-1; [5]) | IC50 (Pancreatic CAPAN-2) | further results
1 | 712 nM | 694 nM | 494 nM | 496 nM | 89.7 nM | 158 nM | 22.6 nM | 55.5 nM | 62.4 nM | 64.2 nM | 36.6 nM | 96 nM | COc1cc(/C=C/c2cc(O)cc(OC)c2CC=C(C)C)ccc1O [Compound 1, (E)-3-(4-hydroxy-3-methoxystyryl)-5-methoxy-4-(3-methylbut-2-en-1-yl)phenol] | 184 nM | 1160 nM | 55.2 nM | 1730 nM | 696 nM | 6220 nM | 1460 nM | 182 nM | IC50 (Tongue SCC-9): 181 nM
2 | 217 nM | 136 nM | 10.4 nM | 9.8 nM | ~0.0135 nM | 17.8 nM | 6.39 nM | 15.1 nM | 8.56 nM | 8.56 nM | 11.5 nM | 6.05 nM | CCOc1cc(O)cc(/C=C/c2ccc(O)c(OC)c2)c1CC=C(C)C [Compound 8, (E)-3-Ethoxy-5-(4-hydroxy-3-methoxystyryl)-4-(3-methylbut-2-en-1-yl)phenol] | 46.5 nM | 563 nM | 4.63 nM | 463 nM | 519 nM | 4690 nM | 2450 nM | 9.75 nM | Fold IC50 (Bladder J82; [6]): 4.0; Fold IC50 (Bladder SW780; [6]): 3.3; Fold IC50 (Bladder UMUC-14; [6]): 2.1; Fold IC50 (Breast MCF7; [6]): 5.1; Fold IC50 (Fibrosarcomas SW 684; [6]): .12; Fold IC50 (Kidney ACHN; [6]): 48; Fold IC50 (Kidney HTB-45; [6]): 3.7; Fold IC50 (Kidney SK-NEP-1; [6]): 8.9; Fold IC50 (Leiomyosarcoma SK-UT-1B; [6]): 3.5; Fold IC50 (Liposarcoma 93T449; [6]): 3.7; Fold IC50 (Liver JHH-7; [6]): 1.3; Fold IC50 (Lung NCI-H1299; [6]): 7.3; Fold IC50 (Lung NCI-H661; [6]): 3.2; Fold IC50 (Pancreatic CAPAN-1; [6]): 1.3; Fold IC50 (Pancreatic CAPAN-2; [6]): 19; Fold IC50 (Rhabomyosarcoma CCL 166; [6]): 16; IC50 (Tongue SCC-9): 75.5 nM; Fold IC50 (Tongue SCC-9; [6]): 2.4
3 | – | – | – | – | – | – | – | – | – | – | – | – | COc1cc(/C=C/c2cc(O)cc(OC)c2CC=C(C)C)ccc1NC=O [Compound 27, (E)-N-(4-(5-hydroxy-3-methoxy-2-(3-methylbut-2-en-1-yl)styryl)-2-methoxyphenyl)formamide] | – | – | – | – | – | – | – | – | Toxicity and tolerability, survival and signs of distress (BalbC mice): All five mice survived and showed no immediate signs of distress; also recorded: high degree of oral tolerability
